Laboratory results as given in US20080004317A1, “Compounds” (AstraZeneca AB, priority 2004, published 2008).
Converted amounts (≈) assume the structure as drawn.

Tests used:
[1] = biological target: T1, Recombinant human MMP12 catalytic domain (Homo sapiens, UniProt P39900); assay: MMP12 isolated enzyme assay; assay type: biochemical; conditions: read-out: hMMP12 IC50
T1 construct: Recombinant human MMP12 catalytic domain; made in house
Procedure: Recombinant human MMP12 catalytic domain may be expressed and purified as described by Parkar A. A. et al, (2000), Protein Expression and Purification, 20, 152. The purified enzyme can be used to monitor inhibitors of activity as follows: MMP12 (50 ng/ml final concentration) is incubated for 60 minutes at room temperature with the synthetic substrate Mca-Pro-Cha-Gly-Nva-His-Ala-Dpa-NH2 (10 μM) in assay buffer (0.1M “Tris-HCl”™ buffer, pH 7.3 containing 0.1M NaCl, 20 mM CaCl2, 0.020 mM ZnCl and 0.05% (w/v) “Brij 35”™ detergent) in the presence (10 concentrations) or absence of inhibitors. Activity is determined by measuring the fluorescence at λex 320 nm and λem 405 nm. Percent inhibition is calculated as follows: % Inhibition is equal to the [Fluorescenceplus inhibitor−Fluorescencebackground] divided by the [Fluorescenceminus inhibitor−Fluorescencebackground]. MMP8

[2] = biological target: T2, Recombinant human MMP9 catalytic domain (Homo sapiens, UniProt P14780); assay: MMP9 isolated enzyme assay; assay type: biochemical; conditions: read-out: hMMP9 IC50
T2 sequence (P14780 with tags, fused parts or gaps DEL216-390 limits assumed): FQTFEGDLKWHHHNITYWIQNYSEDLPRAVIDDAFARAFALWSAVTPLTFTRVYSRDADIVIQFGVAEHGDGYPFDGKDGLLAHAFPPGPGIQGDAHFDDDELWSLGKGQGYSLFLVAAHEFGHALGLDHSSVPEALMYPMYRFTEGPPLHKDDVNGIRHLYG
Procedure: Recombinant human MMP9 catalytic domain was expressed and then purified by Zn chelate column chromatography followed by hydroxamate affinity column chromatography. The enzyme can be used to monitor inhibitors of activity as follows: MMP9 (5 ng/ml final concentration) is incubated for 30 minutes at RT with the synthetic substrate Mca-Pro-Cha-Gly-Nva-His-Ala-Dpa-NH2 (5 μM) in assay buffer (0.1M “Tris-HCl”™ buffer, pH 7.3 containing 0.1M NaCl, 20 mM CaCl2, 0.020 mM ZnCl and 0.05% (w/v) “Brij 35”™ detergent) in the presence (10 concentrations) or absence of inhibitors. Activity is determined by measuring the fluorescence at λex 320 nm and λem 405 nm. Percent inhibition is calculated as follows: % Inhibition is equal to the [Fluorescenceplus inhibitor−Fluorescencebackground] divided by the [Fluorescenceminus inhibitor−Fluorescencebackground]. MMP14
A protocol for testing against other matrix metalloproteinases, including MMP9, using expressed and purified pro MMP is described, for instance, by C. Graham Knight et al., (1992) FEBS Lett., 296(3), 263-266.

[3] = biological target: T3, MMP8 (Homo sapiens, UniProt P22894); assay: MMP8 isolated enzyme assay; assay type: biochemical; conditions: read-out: hMMP8 IC50
T3 construct: purchased Calbiochem
Procedure: Purified pro-MMP8 is purchased from Calbiochem. The enzyme (at 10 μg/ml) is activated by p-amino-phenyl-mercuric acetate (APMA) at 1 mM for 2.5 h, 35° C. The activated enzyme can be used to monitor inhibitors of activity as follows: MMP8 (200 ng/ml final concentration) is incubated for 90 minutes at 35° C. (80% H2O) with the synthetic substrate Mca-Pro-Cha-Gly-Nva-His-Ala-Dpa-NH2 (12.5 μM) in assay buffer (0.1M “Tris-HCl”™ buffer, pH 7.5 containing 0.1M NaCl, 30 mM CaCl2, 0.040 mM ZnCl and 0.05% (w/v) “Brij 35”™ detergent) in the presence (10 concentrations) or absence of inhibitors. Activity is determined by measuring the fluorescence at λex 320 nm and λem 405 nm. Percent inhibition is calculated as follows: % Inhibition is equal to the [Fluorescenceplus inhibitor−Fluorescencebackground] divided by the [Fluorescenceminus inhibitor−Fluorescencebackground]. MMP9

[4] = biological target: T4, Recombinant human MMP14 catalytic domain (Homo sapiens, UniProt P50281); assay: MMP14 isolated enzyme assay; assay type: biochemical; conditions: read-out: hMMP14 IC50
T4 construct: Recombinant human MMP14 catalytic domain; made in house
Procedure: Recombinant human MMP14 catalytic domain may be expressed and purified as described by Parkar A. A. et al, (2000), Protein Expression and Purification, 20, 152. The purified enzyme can be used to monitor inhibitors of activity as follows: MMP14 (10 ng/ml final concentration) is incubated for 60 minutes at room temperature with the synthetic substrate Mca-Pro-Cha-Gly-Nva-His-Ala-Dpa-NH2 (10 μM) in assay buffer (0.1M “Tris-HCl” (trade mark) buffer, pH 7.5 containing 0.1M NaCl, 20 mM CaCl2, 0.020 mM ZnCl and 0.05% (w/v) “Brij 35”™ detergent) in the presence (5 concentrations) or absence of inhibitors. Activity is determined by measuring the fluorescence at λex 320 nm and λem 405 nm. Percent inhibition is calculated as follows: % Inhibition is equal to the [Fluorescenceplus inhibitor−Fluorescencebackground] divided by the [Fluorescenceminus inhibitor−Fluorescencebackground].

[5] = Solubility in 0.1M phosphate buffer, pH 7.4; assay type: physicochemical; conditions: aqueous buffer, thermodynamic from solid, pH 7.4, 20° C.
Procedure: Protocol for Determination of Solubility
The test compound (1 mg) was weighed into a 2 mL glass vial with a screw cap and 0.1M phosphate buffer pH 7.4. (1.00 mL) was added. The sample vial was then sonicated for about 10 minutes and then placed on a shake board overnight at 20° C. The contents of the sample vial were then filtered through a Millipore Millex-LH 0.45 μm filter into a new 2 mL glass vial to give a clear solution. The clear solution (40 μL) was transferred to a new 2 mL glass vial and diluted with 0.1M phosphate buffer, pH 7.4 (960 μL).
A standard calibration curve for each particular test compound was established using solutions of known concentration. These solutions of known concentration were normally chosen to have concentrations of ˜10 μg/mL and ˜50 μg/mL. They were prepared by dissolving a known weight of the compound in 99.5% ethanol (500 μL) and then sonicating for one minute if necessary. If the compound was still not completely dissolved, DMSO (500 μL) was added and the mixture sonicated for an additional one minute. The resulting solution was then diluted to the appropriate volume with a mixture of acetonitrile/100 mM ammonium acetate pH 5.5 20-50/80-50. If necessary, a further, more dilute, standard solution was prepared by dilution.

[6] = system: plasma protein; assay: Plasma protein binding by ultrafiltration; assay type: in vitro ADME; conditions: 10 μM
Procedure: Plasma protein binding was determined by ultrafiltration in an automated 96 well format assay. On each test occasion the plasma protein binding of a reference compound (budesonide) was monitored in parallel.
Test compounds (10 mM dissolved in DMSO) were added to plasma to a final concentration of 10 μM and equilibrated at room temperature for 10 minutes. 350 μL of the plasma was transferred to an ultrafiltration plate, Microcon-96 (10 kDa cutoff, Millipore). The ultrafiltration plate was centrifuged at 3000 G for 70 minutes at room temperature. After centrifugation, the concentration of the compounds in the obtained plasma water (the unbound fraction) was determined by LC-MS/MS using a 3-point calibration curve and compared to the concentration in the original spiked plasma.
The analyses were performed using a gradient chromatographic system with acetic acid/acetonitrile as mobile phases. The detection was done using a triple quadropole mass spectrometer, API3000 or API4000, from Applied Biosystems, with an electrospray interface.

T3 sequence (P22894 101-467): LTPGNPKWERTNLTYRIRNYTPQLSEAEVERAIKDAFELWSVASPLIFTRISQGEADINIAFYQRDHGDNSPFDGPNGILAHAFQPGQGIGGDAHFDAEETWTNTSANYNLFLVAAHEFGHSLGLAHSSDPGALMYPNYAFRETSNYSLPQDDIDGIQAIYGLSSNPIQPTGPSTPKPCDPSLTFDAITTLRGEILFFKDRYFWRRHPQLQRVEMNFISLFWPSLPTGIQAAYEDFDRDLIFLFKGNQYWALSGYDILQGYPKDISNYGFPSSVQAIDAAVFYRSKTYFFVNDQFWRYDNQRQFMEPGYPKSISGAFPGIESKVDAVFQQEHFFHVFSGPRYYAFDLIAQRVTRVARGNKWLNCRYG
T1 sequence (P39900 106-263 limits assumed): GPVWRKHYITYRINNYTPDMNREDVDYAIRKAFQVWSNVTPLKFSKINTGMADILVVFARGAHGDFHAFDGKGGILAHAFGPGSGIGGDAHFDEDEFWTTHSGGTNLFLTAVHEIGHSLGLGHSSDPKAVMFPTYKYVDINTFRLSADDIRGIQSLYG

IC50 [1] [nM]	IC50 [2] [nM]	IC50 [3] [nM]	IC50 [4] [nM]	solubility [5] [µM]	Protein binding (% free) [6] [% free]	SMILES
3	8	780	> 10000	1300 (≈ 522 µg/mL)	9.7	CCc1ccc(C#CC2=CCN(S(=O)(=O)C[C@@]3(C)NC(=O)NC3=O)CC2)cn1 [Example 4, (5S)-5-({[4-[(6-Ethylpyridin-3-yl)ethynyl]-3,6-dihydropyridin-1-(2H)-yl]sulfonyl}methyl)-5-methylimidazolidine-2,4-dione]
5	7	430	> 10000	41 (≈ 18.1 µg/mL)		C[C@]1(CS(=O)(=O)N2CC=C(C#Cc3ccc(C(F)(F)F)nc3)CC2)NC(=O)NC1=O [Example 5, (5S)-5-Methyl-5-({[4-{[6-(trifluoromethyl)pyridin-3-yl]ethynyl}-3,6-dihydropyridin-1(2H)-yl]sulfonyl}methyl)imidazolidine-2,4-dione]
140	11200	> 1000	> 1000	1600 (≈ 598 µg/mL)		C[C@]1(CS(=O)(=O)N2CC=C(C#Cc3ccccn3)CC2)NC(=O)NC1=O [WO 02/074767, page 119, (5S)-5-methyl-5-({[4-(pyridin-2-ylethynyl)-3,6-dihydropyridin-1(2H)-yl]sulfonyl}-methyl)-imidazolidine-2,4-dione, reference compound]
